Assay results reported in ChEMBL document CHEMBL1681786, “Synthesis, biological evaluation and 3D-QSAR studies of 3-keto salicylic acid chalcones and related amides as novel HIV-1 integrase inhibitors” (Bioorg Med Chem, 2011).

Tests used:
[1] = biological target: T1, Human immunodeficiency virus type 1 integrase (Human immunodeficiency virus 1, UniProt Q7ZJM1); test: Inhibition of Human immunodeficiency virus 1 integrase-mediated 3'-processing after 30 mins by polyacrylamide gel electrophoresis
T1 sequence (Q7ZJM1 whole entry): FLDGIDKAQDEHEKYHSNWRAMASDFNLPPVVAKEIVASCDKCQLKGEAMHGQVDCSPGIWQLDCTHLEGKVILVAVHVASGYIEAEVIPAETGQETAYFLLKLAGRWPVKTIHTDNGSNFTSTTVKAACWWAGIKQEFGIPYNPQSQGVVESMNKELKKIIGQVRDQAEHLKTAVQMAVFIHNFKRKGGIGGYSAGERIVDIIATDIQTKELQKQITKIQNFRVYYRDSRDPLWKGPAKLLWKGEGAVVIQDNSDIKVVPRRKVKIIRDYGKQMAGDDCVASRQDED

[2] = biological target: T1, Human immunodeficiency virus type 1 integrase; test: Inhibition of Human immunodeficiency virus 1 integrase strand transfer activity after 30 mins by polyacrylamide gel electrophoresis
CCRF-CEM = test: Cytotoxicity against human CEM cells after 6 days by trypan blue assay; conditions: 144 h
PBMC = test: Cytotoxicity against human PBMC after 6 days by trypan blue assay; conditions: 144 h
[3] = tested on: Human immunodeficiency virus 1; test: Antiviral activity against Human immunodeficiency virus 1 LAI infected in human PBMC assessed as inhibition of viral replication after 5 days by reverse transcriptase assay; type: functional, organism-based; conditions: 120 h

| Compound | IC50 [1] [µM] | IC50 [2] [µM] | IC50 (CCRF-CEM) [µM] | IC50 (PBMC) [µM] | EC50 [3] [µM] | EC90 [3] [µM] |
| --- | --- | --- | --- | --- | --- | --- |
| O=C(O)c1cc(Br)cc(C(=O)/C=C/c2ccccc2)c1O | 75 | 25 | – | – | – | – |
| O=C(O)c1cc(Br)cc(C(=O)/C=C/c2ccc(Cl)c(Cl)c2)c1O | 27 | 14 | – | – | – | – |
| O=C(O)c1cc(Br)cc(C(=O)/C=C/c2ccc(Cl)cc2)c1O | 81 | 12 | – | – | – | – |
| O=C(O)c1cc(F)cc(C(=O)/C=C/c2cc(Cl)cc(Cl)c2Cl)c1O | 33 | 15 | – | – | – | – |
| N#Cc1cc(Br)cc(C(=O)/C=C/c2c(Cl)ccc(Cl)c2Cl)c1O | > 100 | 44 | – | – | – | – |
| COc1cc(F)c(/C=C/C(=O)c2cc(Br)cc(C(=O)O)c2O)cc1OC | > 100 | 76 | – | – | – | – |
| Cc1cn([C@H]2C[C@H](N=[N+]=[N-])[C@@H](CO)O2)c(=O)[nH]c1=O [ZIDOVUDINE] | – | – | 56.1 | > 100 | 0.0025 | 0.01 |
| O=C(O)c1cc(Br)cc(C(=O)/C=C/c2ccccc2-c2ccco2)c1O | > 100 | 16 | – | – | – | – |
| O=C(O)c1cc(Cl)cc(C(=O)/C=C/c2cc(Cl)cc(Cl)c2Cl)c1O | 55 | 17 | – | – | – | – |
| O=C(O)c1cc(Br)cc(C(=O)/C=C/c2cc(Cl)cc(Cl)c2Cl)c1O | 20 | 13 | – | – | – | – |
| O=Cc1cc(Br)cc(C(=O)NCc2ccc(F)cc2)c1O | > 100 | 8 | 40.2 | 44 | 30.8 | 52.7 |
| O=C(/C=C/c1cc(Br)cc([N+](=O)[O-])c1O)c1cc(Cl)cc(Cl)c1Cl | > 333 | – | – | – | – | – |
| O=C(O)c1cc(Br)cc(C(=O)/C=C/c2cc3c(cc2Cl)OCO3)c1O | 79 | 63 | – | – | – | – |
| O=C(O)c1cc(Br)cc(C(=O)NCc2ccc(F)cc2)c1O | > 100 | 15 | – | – | – | – |
| CCOc1ccc2ccccc2c1/C=C/C(=O)c1cc(Br)cc(C(=O)O)c1O | 92 | 46 | – | – | – | – |
| O=C(O)c1cc(F)cc(C(=O)/C=C/c2ccc(Cl)cc2Cl)c1O | 52 | 24 | – | – | – | – |
| O=C(O)c1cc(Br)cc(C(=O)/C=C/c2ccc(I)cc2)c1O | 69 | 35 | – | – | – | – |
| COc1cccc2c(/C=C/C(=O)c3cc(Br)cc(C(=O)O)c3O)cccc12 | 54 | – | – | – | – | – |
| O=C(O)c1cc(Cl)cc(C(=O)/C=C/c2cc(Cl)ccc2Cl)c1O | 75 | 25 | – | – | – | – |
| O=C(O)c1cc(Cl)cc(C(=O)/C=C/c2ccc(Cl)c(Cl)c2)c1O | 87 | 41 | – | – | – | – |
| O=C(O)c1cc(Br)cc(C(=O)/C=C/c2cccc(Cl)c2)c1O | 45 | 9 | – | – | – | – |
| O=C(O)c1cc(F)cc(C(=O)/C=C/c2cc(Cl)ccc2Cl)c1O | 50 | 29 | – | – | – | – |
| O=C(O)c1cc(Br)cc(C(=O)/C=C/c2ccccc2OCc2ccccc2)c1O | 21 | 9 | – | – | – | – |
| O=C(O)c1cc(Br)cc(C(=O)/C=C/c2cccc(F)c2)c1O | 71 | 59 | – | – | – | – |
| O=C(O)c1cc(Cl)cc(C(=O)/C=C/c2ccc(Cl)cc2Cl)c1O | > 100 | > 100 | – | – | – | – |
| O=C(O)c1cc(Br)cc(C(=O)/C=C/c2ccc3sccc3c2)c1O | 23 | 11 | 20.7 | 39.1 | 10.1 | 24.3 |
| O=C(O)c1cc(Cl)cc(C(=O)/C=C/c2c(Cl)ccc(Cl)c2Cl)c1O | 77 | 30 | – | – | – | – |
| COc1cccc(/C=C/C(=O)c2cc(Br)cc(C(=O)O)c2O)c1OC | 62 | 34 | – | – | – | – |

| Compound | IC50 [1] [µM] | IC50 [2] [µM] | IC50 (CCRF-CEM) [µM] | IC50 (PBMC) [µM] | EC50 [3] [µM] | EC90 [3] [µM] |
| --- | --- | --- | --- | --- | --- | --- |
| O=C(O)c1cc(Br)cc(C(=O)/C=C/c2cc(Cl)ccc2Cl)c1O | 47 | 18 | – | – | – | – |
| O=C(O)c1cc(Br)cc(C(=O)/C=C/c2ccccc2F)c1O | 74 | 32 | – | – | – | – |
| O=C(O)c1cc(Br)cc(C(=O)/C=C/c2cccc(Br)c2)c1O | 19 | 18 | – | – | – | – |
| O=C(O)c1cc(Br)cc(C(=O)/C=C/c2cccc([N+](=O)[O-])c2)c1O | 49 | 32 | – | – | – | – |
| O=C(O)c1cc(Br)cc(C(=O)/C=C/c2ccsc2)c1O | 30 | 18 | – | – | – | – |
| O=C(O)c1cc(Br)cc(C(=O)/C=C/c2ccc(Br)cc2)c1O | 11 | 5 | 27.5 | 24.4 | 8.7 | 21 |
| O=C(O)c1cc(Br)cc(C(=O)/C=C/c2c(Cl)ccc(Cl)c2Cl)c1O | 23 | < 3.7 | 19 | 22.7 | 7.3 | 20.3 |
| COc1ccc(/C=C/C(=O)c2cc(Br)cc(C(=O)O)c2O)c(Cl)c1OC | > 100 | 76 | – | – | – | – |
| COc1ccc(/C=C/C(=O)c2cc(Br)cc(C(=O)O)c2O)cc1OC1CCCC1 | 100 | 55 | – | – | – | – |
| Cc1cccc(C(=O)NCc2ccc(F)cc2)c1O | > 100 | > 100 | – | – | – | – |
| O=C(O)c1cc(F)cc(C(=O)CCc2cc(Cl)ccc2Cl)c1O | > 100 | 57 | – | – | – | – |
| O=C(O)c1cc(F)cc(C(=O)/C=C/c2c(Cl)ccc(Cl)c2Cl)c1O | 82 | 39 | – | – | – | – |
| Cc1cc(C)cc(/C=C/C(=O)c2cc(Br)cc(C(=O)O)c2O)c1 | > 100 | 58 | – | – | – | – |
| O=C(O)c1cc(F)cc(C(=O)/C=C/c2ccc(Cl)cc2)c1O | 36 | 17 | – | – | – | – |
| COc1ccc(/C=C/C(=O)c2cc(Br)cc(C(=O)O)c2O)c(OC)c1OC | 85 | 51 | – | – | – | – |
| O=C(O)c1cc(Br)cc(C(=O)/C=C/c2c(Cl)cccc2Cl)c1O | 52 | 16 | – | – | – | – |
| O=C(O)c1cc(Br)cc(C(=O)/C=C/c2cccc(Oc3ccc(Cl)cc3)c2)c1O | 25 | 18 | – | – | – | – |
| O=C(O)c1cc(Cl)cc(C(=O)/C=C/c2cccc(Cl)c2Cl)c1O | 100 | 92 | – | – | – | – |
| O=C(NCc1ccc(F)cc1)c1cc(Br)ccc1O | > 100 | > 100 | – | – | – | – |
| O=C(O)c1cc(Br)cc(C(=O)/C=C/c2ccccc2Cl)c1O | 52 | 14 | – | – | – | – |
| O=C(O)c1cc(F)cc(C(=O)/C=C/c2cccc(Cl)c2Cl)c1O | 55 | 30 | – | – | – | – |
| O=C(O)c1cc(Br)cc(C(=O)/C=C/c2cccc(OC(F)(F)F)c2)c1O | > 100 | 52 | – | – | – | – |
| O=C(O)c1cc(Cl)cc(C(=O)/C=C/c2ccc(Cl)cc2)c1O | 85 | 53 | – | – | – | – |
| O=C(O)c1cc(Br)cc(C(=O)/C=C/c2ccc(Cl)cc2Cl)c1O | 28 | 7 | 23.8 | 22.1 | 13.9 | 26 |
| O=C(O)c1cc(Br)cc(C(=O)/C=C/c2ccc(Oc3ccc(Cl)cc3)cc2)c1O | 22 | 16 | – | – | – | – |
| Cc1cc(C(=O)O)c(O)c(C(=O)/C=C/c2c(Cl)ccc(Cl)c2Cl)c1 | > 100 | 50 | – | – | – | – |
| O=C(O)c1cc(Br)cc(C(=O)/C=C/c2cccc(Cl)c2Cl)c1O | 58 | 19 | – | – | – | – |
